“And” between values parts separate entries of the source, which are not always exact repeats. Equal values may be shown once.

Experiment [1] has as its target USPSa-WT (Staphylococcus aureus, UniProt A0A7U7EVR3). The experiment is described as follows: biochemical. The experiment is classed as binding. As to conditions: His6-USPSa WT, MST; for Kd: Dissociation Constant (KD) ± Standard Deviation, changes in initial fluorescence. Here is the method:
For labeling, the proteins were diluted to a concentration of 800 nM in binding buffer (50 mM potassium phosphate, pH 8.0, 800 mM NaCl, and 0.05% Tween 20), mixed with an equal volume of RED-Tris-NTA dye (80 nM), and incubated on ice in the dark for 30 min. […] The labeled proteins and the ligand dilutions were then mixed in a 1:1 ratio and incubated on ice in the dark for 30 min.
The samples were then loaded into Monolith standard-treated capillaries in triplicate, and the changes in fluorescence were measured with 40% LED power and 20% IR-laser power for an on-time of 20-s at 23 °C. To determine the binding affinity, the ligand-dependent changes in the intensity of the initial fluorescence, or the thermophoretic mobility, were analyzed according to the law of mass action in a standard fitting mode of MO.Affinity analysis software (version 2.3). To exclude the possibility of nonspecific binding of the ligand to the His6-tag (on USPSa) or ligand-induced USP adsorption to labware or due to aggregation, we performed His6-peptide and EDTA tests, respectively ([91]). […] In the EDTA test, the binding buffer additionally contained 50 mM EDTA to disrupt the interaction between His6-USP and the RED-Tris-NTA dye.

For experiment [2], the system named is USPSa-S244A. The experiment is described as follows: MicroScale Thermophoresis (initial fluorescence change) nucleotide binding. Set-up: species or system Staphylococcus aureus. The settings on record: S244A mutant; for Dissociation Constant (KD) ± Standard Deviation: MST, initial fluorescence. The procedure: (§1) The ligand-binding specificity of USPSa, the role of USPSa residues in c-di-AMP binding, and the c-di-AMP binding affinity of USP homologs were biochemically determined by MST, using purified WT and mutant proteins. […] For these MST experiments, WT and active-site mutants of His6-USPSa were first fluorescently labeled using a RED-Tris NTA Monolith His-Tag labeling kit (Nanotemper, Technologies, Inc). For labeling, the proteins were diluted to a concentration of 800 nM in binding buffer (50 mM potassium phosphate, pH 8.0, 800 mM NaCl, and 0.05% Tween 20), mixed with an equal volume of RED-Tris-NTA dye (80 nM), and incubated on ice in the dark for 30 min. The stock solutions of ligands (c-di-AMP, c-di-GMP, ATP, AMP, c-AMP) were serially diluted with the binding buffer in a 1:1 ratio during each dilution step. The labeled proteins and the ligand dilutions were then mixed in a 1:1 ratio and incubated on ice in the dark for 30 min.
(§2) The samples were then loaded into Monolith standard-treated capillaries in triplicate, and the changes in fluorescence were measured with 40% LED power and 20% IR-laser power for an on-time of 20-s at 23 °C. To determine the binding affinity, the ligand-dependent changes in the intensity of the initial fluorescence, or the thermophoretic mobility, were analyzed according to the law of mass action in a standard fitting mode of MO.Affinity analysis software (version 2.3). To exclude the possibility of nonspecific binding of the ligand to the His6-tag (on USPSa) or ligand-induced USP adsorption to labware or due to aggregation, we performed His6-peptide and EDTA tests, respectively ([91]). In the His6-peptide test, a control His6-peptide was used instead of USP in the binding assay described above, and if no change in initial fluorescence occurred, this confirmed the USP-specific binding of ligands. In the EDTA test, the binding buffer additionally contained 50 mM EDTA to disrupt the interaction between His6-USP and the RED-Tris-NTA dye. The complete loss of the ligand-induced initial fluorescence change in this assay confirmed that this change was neither because of protein aggregation nor because of protein adsorption to labware.
(§3) The Ka values of WT USPSa for c-di-AMP or AMP were set to 100% relative affinity, and the binding affinities of the other nucleotides (Fig. 1C), or USPSa mutants (Fig. 4E), or USP homologs (Fig. 6, B and C) were depicted as percent values compared with the values of the WT USPSa.
A general note: In MST a laser heats a spot of the sample, and binding alters the fluorescence response.

The test system of experiment [3] is maltose-binding protein–tagged version of the USPSa Y271A mutant. Set-up: method as in PMID 26195599. As to conditions: cited from earlier work.
The subject of experiment [4] is untagged USPSa. The experiment is described as follows: fluorescence-based thermal shift (ThermoFluor) assay. The experiment is classed as binding, Staphylococcus aureus. The settings on record: 7.5-fold molar excess of c-di-AMP; purified untagged USPSa. A general note: DSF heats the sample and reads unfolding from a dye or from intrinsic fluorescence.
Description: The plates were then sealed with Microseal “B” Seal Seals (Bio-Rad Laboratories) and heated in a CFX96 real-time PCR system (Bio-Rad Laboratories) from 25 °C to 99 °C in increments of 0.5 °C. Fluorescence changes in the plate wells were monitored simultaneously with a charge-coupled device camera, utilizing excitation and emission wavelengths of 497 nm and 520 nm, respectively.
Experiment [5] deals with USPSp-WT. The experiment is classed as binding, Streptococcus pneumoniae. As to conditions: MST, change in thermophoretic mobility, read-out: Dissociation Constant (KD) ± Standard Deviation.
Experiment [6] concerns the target maltose-binding protein–tagged USP. The settings on record: differential radial capillary action of ligand assay, read-out: previously reported KD; cited from earlier work.
Experiment [7] deals with T1, USPMtb-WT (Mycobacterium tuberculosis, UniProt P9WGL3).
T1 construct: made in house; host or cells: E. coli C41 (DE3), pTB146, no KdpE co-expression
In words: biochemical. The experiment is classed as binding.

The target in experiment [8] is USPSa2-WT (Staphylococcus aureus, UniProt Q5HK61). In words: biochemical. It counts as binding. As to conditions: MST, change in thermophoretic mobility, read-out: Dissociation Constant (KD) ± Standard Deviation.
The target of experiment [9] is USPSa-V310A (Staphylococcus aureus, UniProt A0A7U7EVR3, V310A). The experiment is described as follows: MicroScale Thermophoresis (initial fluorescence change) nucleotide binding. As to conditions: V310A mutant, MST, read-out: Dissociation Constant (KD) ± Standard Deviation. The procedure: as §1, §2, §3

Regarding `Nc1ncnc2c1ncn2[C@@H]1O[C@H](COP(=O)(O)O)[C@@H](O)[C@H]1O` [AMP], in experiment [1], the Kd worked out at 2650 ± 1160 µM and the “binding affinity, fold lower than that of c-di-AMP” value was over 5000 fold. In experiment [2], the “binding in MST analysis (in words)” value was “did not bind” and the “Dissociation Constant (KD) ± Standard Deviation” value is given as “No Binding Observed”.

For `Nc1ncnc2c1ncn2[C@@H]1O[C@@H]2COP(=O)(O)O[C@H]3[C@@H](O)[C@H](n4cnc5c(N)ncnc54)O[C@@H]3COP(=O)(O)O[C@H]2[C@H]1O` [c-di-AMP, cyclic-di-adenosine monophosphate], the Kd was 0.5 µM and 0.53 µM in [1]; 67.5 ± 13 µM in experiment [5]; 2 ± 0.18 µM in [6]; 666 ± 168 µM in experiment [7]; 125 ± 15 µM in experiment [8]; 1.71 ± 0.42 µM in experiment [9]. Besides, the “c-di-AMP binding in vitro (in words)” value in experiment [3] is “deficient in c-di-AMP binding”. Moreover, in experiment [2], the “binding in MST analysis (in words)” value is on record as “complete loss”. Moreover, in [2], the “Dissociation Constant (KD) ± Standard Deviation” value is on record as “No Binding Observed”. Moreover, the “increase of melting temperature of USPSa” value in [4] was found to be 10 °C.

As a reminder, the Kd is the concentration at which binding is half-saturated.
